Some test systems named below: Escherichia coli K88; Escherichia coli 078; Escherichia coli K99; Escherichia coli UB1005; Escherichia coli MC1041; Escherichia coli J2210; Escherichia coli JJ2489; Escherichia coli BW25113; Escherichia coli JW0013; Staphylococcus aureus; Streptococcus agalactiae.
Assay in all cases: ≥ marks a high value that may be exact or a test limit, other limits are often not marked, values filed in µg/mL are converted to µM
The subject of assay [1] is Bacillus licheniformis ATCC 14580.
In assay [2] the test system is Enterococcus faecium 5F-10.
Assay [3] deals with Bacillus amyloliquefaciens ATCC 23842.
In assay [4] the test system is Bacillus cereus ATCC 14579.
Assay [5] deals with Escherichia coli ATCC 25922.
Assay [6] deals with Proteus mirabilis ATCC 35659.
Assay [7] relates to Enterococcus faecalis 1F-1.
Assay [8] has as its system Bacillus subtilis ATCC 6051.
Assay [9] concerns Pseudomonas aeruginosa PAO1.
The subject of assay [10] is Staphylococcus aureus ATCC 29213.
In assay [11] the test system is Salmonella enterica ATCC H9812.
Assay [12] relates to Candida albicans ATCC 10231.
In assay [13] the test system is Pseudomonas aeruginosa ATCC 10145.
Assay [14] concerns Staphylococcus aureus ATCC 33591.
The test system of assay [15] is Escherichia coli ATCC 2592.
Assay [16] deals with Cryptococcus neoformans ATCC 32045.
In assay [17] the test system is Candida parapsilosis CGMCC 2.3989.
The subject of assay [18] is Pseudomonas aeruginosa ATCC 27853.
Assay [19] relates to Staphylococcus aureus ATCC 43300.
The subject of assay [20] is Staphylococcus aureus ATCC 25923.
In assay [21] the test system is Staphylococcus epidermidis ATCC 12228.
Assay [22] relates to Candida tropicalis CGMCC 2.1975.
In assay [23] the test system is Salmonella enterica subsp. enterica serovar Pullorum ATCC 7913.
Assay [24] concerns Salmonella enterica subsp. enterica serovar Typhimurium ATCC 14028.
The test system of assay [25] is Salmonella enterica subsp. enterica serovar Typhimurium C77-31.
Assay [26] deals with Escherichia coli JW0368 ΔsbmA.
For assay [27], the system named is Salmonella typhimurium SL1344.
For assay [28], the system named is Escherichia coli JW2778 ΔygdD.
For assay [29], the system named is Salmonella enterica subsp. enterica serovar Enteritidis MH91989.
For assay [30], the system named is Salmonella enterica subsp. enterica serovar Choleraesuis CVCC 503.
For assay [31], the system named is Salmonella enterica subsp. enterica serovar Pullorum C79-13.
For assay [32], the system named is Enterococcus faecalis ATCC 29212.

In brackets after ≈: the same amount, converted by molar mass.

For orientation: MIC means the lowest concentration that inhibits growth of the organism. As to `CC(C)C[C@H](NC(=O)[C@H](CCC(=O)O)NC(=O)[C@H](CC(=O)O)NC(=O)[C@@H](NC(=O)[C@H](CCCN=C(N)N)NC(=O)[C@H](CO)NC(=O)[C@@H](N)CC(C)C)C(C)C)C(=O)O` [LSRVDEL], the minimum inhibitory concentration (MIC) was no less than 154 µM in assay [1]; no less than 154 µM in [2]; no less than 154 µM in assay [3]; no less than 154 µM in [4]; greater than 154 µM in assay [5]; no less than 154 µM in [6]. Also, the MIC is no less than 154 µM in [7]; no less than 154 µM in assay [8]; greater than 154 µM in assay [9]; greater than 154 µM in [10]; no less than 154 µM in assay [11].
Turning to `NCCCC[C@H](NC(=O)[C@H](Cc1ccccc1)NC(=O)[C@H](Cc1ccccc1)NC(=O)[C@H](CCCCN)NC(=O)[C@H](CCCCN)NC(=O)[C@H](Cc1ccccc1)NC(=O)[C@H](Cc1ccccc1)NC(=O)[C@H](CCCCN)NC(=O)[C@H](CCCCN)NC(=O)[C@H](Cc1ccccc1)NC(=O)[C@H](Cc1ccccc1)NC(=O)[C@H](CCCCN)NC(=O)[C@H](CCCCN)NC(=O)[C@H](Cc1ccccc1)NC(=O)[C@H](Cc1ccccc1)NC(=O)[C@H](CCCCN)NC(=O)[C@H](CCCCN)NC(=O)[C@H](Cc1ccccc1)NC(=O)[C@H](Cc1ccccc1)NC(=O)[C@H](CCCCN)NC(=O)[C@H](CCCCN)NC(=O)[C@H](Cc1ccccc1)NC(=O)[C@H](Cc1ccccc1)NC(=O)[C@H](CCCCN)NC(=O)[C@H](CCCCN)NC(=O)[C@H](Cc1ccccc1)NC(=O)[C@H](Cc1ccccc1)NC(=O)[C@@H](N)CCCCN)C(=O)O` [KFFKKFFKKFFKKFFKKFFKKFFKKFFK], the MIC in assay [12] is 91.3 µM (≈ 354 µg/mL); in [13] it was no less than 32.3 µM; in assay [14], no less than 64.6 µM; in assay [15] it was no less than 32.3 µM; in [16] it was 22.7 µM (≈ 88 µg/mL).
On to `CC[C@H](C)[C@H](NC(=O)[C@H](CCCN=C(N)N)NC(=O)[C@H](C)NC(=O)[C@H](C)N)C(=O)N[C@H](C(=O)N[C@@H](CC(C)C)C(=O)N[C@@H](CCCN=C(N)N)C(=O)N[C@@H](Cc1c[nH]c2ccccc12)C(=O)N[C@@H](CCCN=C(N)N)C(=O)N[C@@H](Cc1ccccc1)C(=O)N[C@@H](CCCN=C(N)N)C(N)=O)[C@@H](C)CC` [AARIILRWRFR], for which the MIC came out at 4 µM (≈ 5.83 µg/mL) in assay [17]; 4 µM (≈ 5.83 µg/mL) in assay [18]; 2 µM (≈ 2.91 µg/mL) in the assay with Escherichia coli K88; 2 µM (≈ 2.91 µg/mL) in the assay with Escherichia coli 078; 1 µM (≈ 1.46 µg/mL) in assay [19]; 2 µM (≈ 2.91 µg/mL) in assay [20]. Also, the MIC with Escherichia coli K99 is 2 µM (≈ 2.91 µg/mL); against Escherichia coli UB1005, 4 µM (≈ 5.83 µg/mL); in assay [21], 1 µM (≈ 1.46 µg/mL); in assay [22], 4 µM (≈ 5.83 µg/mL); in assay [23], 2 µM (≈ 2.91 µg/mL); in [24], 2 µM (≈ 2.91 µg/mL). The MIC in [25] was 4 µM (≈ 5.83 µg/mL).
In the case of `CC(C)C[C@H](NC(=O)[C@H](CCCN=C(N)N)NC(=O)[C@@H]1CCCN1C(=O)[C@H](CCCN=C(N)N)NC(=O)[C@@H]1CCCN1C(=O)[C@@H]1CCCN1C(=O)[C@H](CCCN=C(N)N)NC(=O)[C@@H]1CCCN1C(=O)[C@H](CCC(N)=O)NC(=O)[C@@H]1CCCN1C(=O)[C@H](CCCN=C(N)N)NC(=O)[C@H](Cc1ccc(O)cc1)NC(=O)[C@@H](NC(=O)[C@@H]1CCCN1C(=O)[C@H](CCCCN)NC(=O)[C@H](CC(N)=O)NC(=O)[C@H](CC(N)=O)NC(=O)CN)C(C)C)C(=O)O` [GNNKPVYRPQPRPPRPRL], the minimal inhibitory concentration (MIC) against Escherichia coli MC1041 was determined as 0.126 µM (≈ 0.27 µg/mL); in the assay on Escherichia coli J2210, 0.252 µM (≈ 0.54 µg/mL); in the assay with Escherichia coli JJ2489, 0.133 µM (≈ 0.285 µg/mL); in assay [26] it was 0.133 µM (≈ 0.285 µg/mL); in assay [27], 0.192 µM (≈ 0.411 µg/mL); in the assay with Escherichia coli BW25113, 0.096 µM (≈ 0.206 µg/mL). Besides, the values for the MIC (with Escherichia coli JW0013; in [28]; in [29]) were 0.096 µM (≈ 0.206 µg/mL), 0.192 µM (≈ 0.411 µg/mL) and 0.096 µM (≈ 0.206 µg/mL), respectively.
Regarding `C[C@H](NC(=O)[C@H](Cc1ccccc1)NC(=O)[C@H](CCCCN)NC(=O)[C@H](CCCCN)NC(=O)[C@H](C)NC(=O)[C@H](Cc1ccccc1)NC(=O)[C@H](CCCCN)NC(=O)[C@H](CCCCN)NC(=O)[C@H](C)NC(=O)[C@H](Cc1ccccc1)NC(=O)[C@@H](N)CCCCN)C(=O)N[C@@H](CCCCN)C(=O)O` [KFAKKFAKKFAK], the minimal inhibitory concentration (MIC) in assay [12] is 260 µM (≈ 374 µg/mL); in assay [13], no less than 347 µM; in assay [14] it was no less than 347 µM; in assay [15], no less than 173 µM; in assay [16], no less than 123 µM.
Regarding `CC[C@H](C)[C@H](N)C(=O)N[C@@H](CS)C(=O)N[C@@H](CCCN=C(N)N)C(=O)N[C@@H](CCCCN)C(=O)N1CCC[C@H]1C(=O)N[C@H](C(=O)N[C@H](C(=O)N[C@@H](CS)C(=O)N[C@@H](CCCN=C(N)N)C(=O)N[C@@H](CCCCN)C(=O)N1CCC[C@H]1C(=O)N[C@H](C(N)=O)[C@@H](C)CC)[C@@H](C)CC)[C@@H](C)CC` [ICRKPIICRKPI], the minimum inhibitory concentration (MIC) in [30] is no less than 64 µM; in [19], greater than 64 µM; in the assay on Staphylococcus aureus, greater than 64 µM; in the assay with Escherichia coli UB1005, no less than 64 µM; in assay [21], greater than 64 µM; in assay [5] it was 64 µM (≈ 92.1 µg/mL). For the same molecule, the MIC in the assay with Streptococcus agalactiae was no less than 64 µM; in [24], greater than 64 µM; in assay [31], no less than 64 µM; in assay [10] it was greater than 64 µM; in assay [32], greater than 64 µM; in assay [25] it was no less than 64 µM.
As for `CC(C)C[C@H](N)C(=O)N[C@@H](CO)C(=O)N[C@@H](CCCN=C(N)N)C(=O)N[C@H](C(=O)N[C@@H](CC(=O)O)C(=O)O)C(C)C` [LSRVD], the MIC in [1] is no less than 217 µM; in assay [2], no less than 217 µM; in assay [3], no less than 217 µM; in assay [4] it was no less than 217 µM; in [5] it was 109 µM (≈ 64 µg/mL); in assay [6], no less than 217 µM. Also, the minimum inhibitory concentration (MIC) in assay [7] is no less than 217 µM; in assay [8], no less than 217 µM; in assay [9], greater than 217 µM; in assay [10], greater than 217 µM; in [11], no less than 109 µM.

Source of the values: DBAASP.
